{"source": "patent US20090143279A1", "about": "(priority 2007, published 2009)", "key": {"OXPHOS gene expression": {"system": "OXPHOS gene expression", "format": "cell-based, mouse"}, "cytochrome c": {"system": "cytochrome c", "format": "cell-based, mouse"}, "[1]": {"system": "cellular dehydrogenase activity"}, "mtOXPHOS transcripts": {"system": "mtOXPHOS transcripts", "format": "cell-based, mouse"}, "[2]": {"system": "mitochondrial membrane potential", "format": "cell-based, mouse"}, "nuOXPHOS transcripts": {"system": "nuOXPHOS transcripts", "format": "cell-based, mouse"}, "reactive oxygen species": {"system": "reactive oxygen species", "format": "cell-based, mouse"}, "[3]": {"details": "composite Z-score vs DMSO, Conc 20 μM"}, "[4]": {"details": "composite Z-score vs mock-treated (DMSO) wells, Conc 20 μM"}, "[5]": {"details": "20 μM, composite Z-score vs DMSO"}, "[6]": {"details": "composite Z-score vs mock-treated (DMSO) wells, concentration of each compound in μM"}}, "note": "Read-outs that look alike come from different tables or passages of the source.", "data": [{"compound": "Cc1cc(O)c(C)c(O)c1C(=O)O", "note": "[3-methylorsellinic acid]", "values": [{"measurement": "GE-HTS", "setting": "OXPHOS gene expression; [3]", "value": "−1.005"}, {"measurement": "cyt c", "setting": "cytochrome c; [3]", "value": 0.321}, {"measurement": "Viability", "setting": "C2C12 myotubes; [3]", "value": "−0.494"}, {"measurement": "MTT", "setting": "[1]; [3]", "value": "−1.253"}, {"measurement": "mitoOX", "setting": "mtOXPHOS transcripts; [3]", "value": "−0.108"}, {"measurement": "ΔΨm", "setting": "[2]; [3]", "value": "−0.030"}, {"measurement": "nucOX", "setting": "nuOXPHOS transcripts; [3]", "value": "−1.318"}, {"measurement": "ROS", "setting": "reactive oxygen species; [3]", "value": 0.860}]}, {"compound": "CC(=O)O[C@@H]1CC2C(C)(C)C=CC(=O)[C@]2(C)C2CC[C@@]3(C)[C@H](c4ccoc4)OC(=O)C4OC43[C@@]21C", "note": "(stereo partly drawn) [isogedunin]", "values": [{"measurement": "GE-HTS", "setting": "OXPHOS gene expression; [4]", "value": 0.805}, {"measurement": "cyt c", "setting": "cytochrome c; [4]", "value": 0.050}, {"measurement": "Viability", "setting": "C2C12 myotubes; [4]", "value": 0.404}, {"measurement": "MTT", "setting": "[1]; [4]", "value": "−1.716"}, {"measurement": "mitoOX", "setting": "mtOXPHOS transcripts; [4]", "value": 0.523}, {"measurement": "ΔΨm", "setting": "[2]; [4]", "value": "−0.489"}, {"measurement": "nucOX", "setting": "nuOXPHOS transcripts; [4]", "value": 0.883}]}, {"compound": "COC(=O)/C(=C1/OC(=O)C(c2ccccc2)=C1O)c1ccccc1", "note": "[vulpinic acid]", "values": [{"measurement": "GE-HTS", "setting": "OXPHOS gene expression; [5]", "value": "−0.152"}, {"measurement": "cyt c", "setting": "cytochrome c; [5]", "value": 1.037}, {"measurement": "Viability", "setting": "C2C12 myotubes; [5]", "value": "−1.120"}, {"measurement": "MTT", "setting": "[1]; [5]", "value": 0.403}, {"measurement": "mitoOX", "setting": "mtOXPHOS transcripts; [5]", "value": "−0.792"}, {"measurement": "ΔΨm", "setting": "[2]; [5]", "value": "−3.484"}, {"measurement": "nucOX", "setting": "nuOXPHOS transcripts; [5]", "value": 0.168}, {"measurement": "ROS", "setting": "reactive oxygen species; [5]", "value": 1.407}]}, {"compound": "Cc1cc(C(C)(C)CC(C)(C)C)ccc1OCCOCC[N+](C)(C)Cc1ccccc1", "note": "[methylbenzethonium]", "values": [{"measurement": "GE-HTS", "setting": "OXPHOS gene expression", "value": "−1.868"}, {"measurement": "Viability", "setting": "C2C12 myotubes", "value": "−4.580"}, {"measurement": "MTT", "setting": "[1]", "value": "−5.614"}, {"measurement": "mitoOX", "setting": "mtOXPHOS transcripts", "value": "−1.043"}, {"measurement": "ΔΨm", "setting": "[2]", "value": "−4.202"}, {"measurement": "nucOX", "setting": "nuOXPHOS transcripts", "value": "−2.103"}, {"measurement": "ROS", "setting": "reactive oxygen species", "value": "−3.108"}]}, {"compound": "COc1cc(OC)c2c(=O)c(-c3ccccc3)coc2c1", "note": "[5,7-dimethoxyisoflavone]", "values": [{"measurement": "GE-HTS", "setting": "OXPHOS gene expression; [3]", "value": 0.945}, {"measurement": "cyt c", "setting": "cytochrome c; [3]", "value": 0.046}, {"measurement": "Viability", "setting": "C2C12 myotubes; [3]", "value": "−0.298"}, {"measurement": "MTT", "setting": "[1]; [3]", "value": "−1.335"}, {"measurement": "mitoOX", "setting": "mtOXPHOS transcripts; [3]", "value": 0.773}, {"measurement": "nucOX", "setting": "nuOXPHOS transcripts; [3]", "value": 0.916}, {"measurement": "ROS", "setting": "reactive oxygen species; [3]", "value": 0.573}]}, {"compound": "NCCCCN", "note": "[putrescine]", "values": [{"measurement": "GE-HTS", "setting": "OXPHOS gene expression", "value": "−0.341"}, {"measurement": "cyt c", "setting": "cytochrome c", "value": 0.897}, {"measurement": "Viability", "setting": "C2C12 myotubes", "value": "−0.586"}, {"measurement": "MTT", "setting": "[1]", "value": "−0.806"}, {"measurement": "mitoOX", "setting": "mtOXPHOS transcripts", "value": "−0.684"}, {"measurement": "nucOX", "setting": "nuOXPHOS transcripts", "value": "−0.160"}, {"measurement": "ROS", "setting": "reactive oxygen species", "value": 0.279}]}, {"compound": "O=C(O[C@@H]1Cc2c(O)cc(O)cc2O[C@@H]1c1cc(O)c(=O)c2c(O)c(O)cc([C@H]3Oc4cc(O)cc(O)c4C[C@H]3OC(=O)c3cc(O)c(O)c(O)c3)c2c1)c1cc(O)c(O)c(O)c1", "note": "[theaflavin digallate]", "values": [{"measurement": "GE-HTS", "setting": "OXPHOS gene expression", "value": 0.783}, {"measurement": "Viability", "setting": "C2C12 myotubes", "value": "−1.408"}, {"measurement": "MTT", "setting": "[1]", "value": "−0.518"}, {"measurement": "mitoOX", "setting": "mtOXPHOS transcripts", "value": 0.275}, {"measurement": "ΔΨm", "setting": "[2]", "value": "−0.326"}, {"measurement": "nucOX", "setting": "nuOXPHOS transcripts", "value": 0.948}, {"measurement": "ROS", "setting": "reactive oxygen species", "value": 0.718}]}, {"compound": "CC12CCC3c4ccc(OCc5ccccc5)cc4CCC3C1C[C@@H](O)[C@@H]2O", "note": "(stereo partly drawn) [estriol benzyl ether]", "values": [{"measurement": "GE-HTS (composite Z-score, OXPHOS gene expression)", "setting": "OXPHOS gene expression", "value": "−0.114"}, {"measurement": "Viability (composite Z-score vs DMSO mock-treated wells)", "setting": "C2C12 myotubes", "value": 0.551}, {"measurement": "MTT (composite Z-score vs DMSO mock-treated wells)", "setting": "[1]", "value": 2.975}, {"measurement": "mitoOX (composite Z-score, mtDNA-encoded OXPHOS expression)", "setting": "mtOXPHOS transcripts", "value": "−0.574"}, {"measurement": "ΔΨm (composite Z-score vs DMSO mock-treated wells)", "setting": "[2]", "value": 3.459}, {"measurement": "nucOX (composite Z-score, nuclear-encoded OXPHOS expression)", "setting": "nuOXPHOS transcripts", "value": 0.122}, {"measurement": "ROS (composite Z-score vs DMSO mock-treated wells)", "setting": "reactive oxygen species", "value": "−0.504"}]}, {"compound": "cinnarazine", "values": [{"measurement": "GE-HTS (composite Z-score)", "setting": "OXPHOS gene expression", "value": 0.362}, {"measurement": "Viability", "setting": "C2C12 myotubes", "value": 0.752}, {"measurement": "Viability (composite Z-score)", "setting": "C2C12 myotubes", "value": "−0.692"}, {"measurement": "MTT", "setting": "[1]", "value": "−1.003"}, {"measurement": "MTT (composite Z-score)", "setting": "[1]", "value": "−0.009"}, {"measurement": "mitoOX (composite Z-score)", "setting": "mtOXPHOS transcripts", "value": 0.349}, {"measurement": "ΔΨm", "setting": "[2]", "value": 0.544}, {"measurement": "ΔΨm (composite Z-score)", "setting": "[2]", "value": "−0.711"}, {"measurement": "nucOX (composite Z-score)", "setting": "nuOXPHOS transcripts", "value": 0.338}, {"measurement": "ROS", "setting": "reactive oxygen species", "value": 0.777}, {"measurement": "ROS (composite Z-score)", "setting": "reactive oxygen species", "value": 1.252}]}, {"compound": "Cc1c(O)cc(O)c2c(=O)c(-c3ccc(O)cc3)coc12", "note": "[genistein, 8-methyl]", "values": [{"measurement": "GE-HTS (composite Z-score)", "setting": "OXPHOS gene expression", "value": 0.247}, {"measurement": "Viability (composite Z-score)", "setting": "C2C12 myotubes", "value": "−0.071"}, {"measurement": "MTT (composite Z-score)", "setting": "[1]", "value": "−1.035"}, {"measurement": "mitoOX (composite Z-score)", "setting": "mtOXPHOS transcripts", "value": 0.023}, {"measurement": "ΔΨm (composite Z-score)", "setting": "[2]", "value": "−0.404"}, {"measurement": "nucOX (composite Z-score)", "setting": "nuOXPHOS transcripts", "value": 0.353}, {"measurement": "ROS (composite Z-score)", "setting": "reactive oxygen species", "value": 1.016}]}, {"compound": "CC(=O)O[C@@H]1CC2C(C)(C)[C@H](O)C=C[C@]2(C)C2CC[C@@]3(C)[C@H](c4ccoc4)OC(=O)C4OC43[C@@]21C", "note": "(stereo partly drawn) [gedunol]", "values": [{"measurement": "GE-HTS", "setting": "OXPHOS gene expression; [4]", "value": "−1.545"}, {"measurement": "Viability", "setting": "C2C12 myotubes; [4]", "value": 0.438}, {"measurement": "MTT", "setting": "[1]; [4]", "value": "−1.248"}, {"measurement": "mitoOX", "setting": "mtOXPHOS transcripts; [4]", "value": "−1.174"}, {"measurement": "ΔΨm", "setting": "[2]; [4]", "value": 0.897}, {"measurement": "nucOX", "setting": "nuOXPHOS transcripts; [4]", "value": "−1.561"}, {"measurement": "ROS", "setting": "reactive oxygen species; [4]", "value": 0.132}]}, {"compound": "nonoxynol-9", "values": [{"measurement": "GE-HTS", "setting": "OXPHOS gene expression; [6]", "value": "−0.872"}, {"measurement": "Viability", "setting": "C2C12 myotubes; [6]", "value": "−0.209"}, {"measurement": "MTT", "setting": "[1]; [6]", "value": "−1.228"}, {"measurement": "mitoOX", "setting": "mtOXPHOS transcripts; [6]", "value": "−0.138"}, {"measurement": "ΔΨm", "setting": "[2]; [6]", "value": "−1.484"}, {"measurement": "nucOX", "setting": "nuOXPHOS transcripts; [6]", "value": "−1.114"}, {"measurement": "ROS", "setting": "reactive oxygen species; [6]", "value": 0.528}]}]}
